Here are results for 30 compounds from patent US20250262201A1, “COMPOUNDS AND METHODS USEFUL FOR STABILIZING PHENYLALANINE HYDROXYLASE MUTATIONS” (Agios Pharmaceuticals, Inc., priority 2022, published 2025).

The target of the assay is T1, human PAH with the R408W mutation (Homo sapiens, UniProt P00439, R408W).
T1 construct: expressed in transfected cells
T1 sequence (P00439 1-452 R408W): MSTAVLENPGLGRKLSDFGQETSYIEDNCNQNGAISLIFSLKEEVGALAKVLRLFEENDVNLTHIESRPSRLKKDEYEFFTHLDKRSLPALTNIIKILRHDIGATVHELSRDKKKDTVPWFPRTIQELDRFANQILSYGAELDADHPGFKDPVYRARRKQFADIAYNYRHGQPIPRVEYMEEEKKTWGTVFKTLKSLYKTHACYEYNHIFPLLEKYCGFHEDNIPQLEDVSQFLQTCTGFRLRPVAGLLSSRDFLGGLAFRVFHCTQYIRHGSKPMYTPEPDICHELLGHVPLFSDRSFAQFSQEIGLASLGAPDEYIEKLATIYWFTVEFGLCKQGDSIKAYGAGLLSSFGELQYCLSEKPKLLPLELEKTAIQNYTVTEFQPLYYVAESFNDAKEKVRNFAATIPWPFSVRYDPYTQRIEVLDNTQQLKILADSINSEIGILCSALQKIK
Nature of the assay: Cell Based Phenylalanine Flux Assay. The conditions noted are these: A375 cells expressing human R408W PAH; 24 hrs compound incubation; 13C-Tyrosine by LC-MS; average where tested multiple times; read-out: AC50.
Take `O=C(c1cncs1)N1CCc2[nH]cnc2[C@H]1c1ccc2ccccc2c1` [Example 221, (R)-(4-(naphthalen-2-yl)-6,7-dihydro-1H-imidazo[4,5-c]pyridin-5(4H)-yl)(thiazol-5-yl)methanone]: the AC50 lay within 1000 to 5000 nM. For the compound `O=C(c1cncs1)N1CCc2[nH]cnc2[C@@H]1c1ccc2ccccc2c1` [Example 222, (S)-(4-(naphthalen-2-yl)-6,7-dihydro-1H-imidazo[4,5-c]pyridin-5(4H)-yl)(thiazol-5-yl)methanone], the AC50 was over 5000 nM. As to `O=C(c1cnc(-c2ccccn2)s1)N1CCc2[nH]cnc2[C@H]1c1ccc2ccccc2c1` [Example 223, (R)-(4-(naphthalen-2-yl)-6,7-dihydro-1H-imidazo[4,5-c]pyridin-5(4H)-yl)(2-(pyridin-2-yl)thiazol-5-yl)methanone], the AC50 was 1000 to 5000 nM. Turning to `O=C(c1cnc(-c2ccccn2)s1)N1CCc2[nH]cnc2[C@@H]1c1ccc2ccccc2c1` [Example 224, (S)-(4-(naphthalen-2-yl)-6,7-dihydro-1H-imidazo[4,5-c]pyridin-5(4H)-yl)(2-(pyridin-2-yl)thiazol-5-yl)methanone], the AC50 is over 5000 nM. In the case of `O=C(c1cnn2ccccc12)N1CCc2[nH]cnc2[C@H]1c1cn2ccccc2n1` [Example 225, (R)-(4-(imidazo[1,2-a]pyridin-2-yl)-6,7-dihydro-1H-imidazo[4,5-c]pyridin-5(4H)-yl)(pyrazolo[1,5-a]pyridin-3-yl)methanone], the AC50 is under 500 nM. Consider `O=C(c1cnn2ccccc12)N1CCc2[nH]cnc2[C@@H]1c1cn2ccccc2n1` [Example 226, (S)-(4-(imidazo[1,2-a]pyridin-2-yl)-6,7-dihydro-1H-imidazo[4,5-c]pyridin-5(4H)-yl)(pyrazolo[1,5-a]pyridin-3-yl)methanone], for which the AC50 is over 5000 nM. As for `Cc1ncoc1C(=O)N1CCc2[nH]cnc2[C@@H]1c1cn2ccccc2n1` [Example 227, (S)-(4-(imidazo[1,2-a]pyridin-2-yl)-6,7-dihydro-1H-imidazo[4,5-c]pyridin-5(4H)-yl)(4-methyloxazol-5-yl)methanone], the AC50 is over 5000 nM.

With `Cc1ncoc1C(=O)N1CCc2[nH]cnc2[C@H]1c1cn2ccccc2n1` [Example 228, (R)-(4-(imidazo[1,2-a]pyridin-2-yl)-6,7-dihydro-1H-imidazo[4,5-c]pyridin-5(4H)-yl)(4-methyloxazol-5-yl)methanone], the AC50 fell in the range of 1000 to 5000 nM. In the case of `FC(F)c1nnc(N2CCc3[nH]cnc3[C@H]2c2cn3ccccc3n2)o1` [Example 230, (R)-2-(difluoromethyl)-5-(4-(imidazo[1,2-a]pyridin-2-yl)-6,7-dihydro-1H-imidazo[4,5-c]pyridin-5(4H)-yl)-1,3,4-oxadiazole], the AC50 lay within 500 to 1000 nM. As to `FC(F)(F)c1cnc(N2CCc3[nH]cnc3[C@H]2c2cn3ccccc3n2)nc1` [Example 231, (R)-4-(imidazo[1,2-a]pyridin-2-yl)-5-(5-(trifluoromethyl)pyrimidin-2-yl)-4,5,6,7-tetrahydro-1H-imidazo[4,5-c]pyridine], the half-maximal activity concentration (AC50) was under 500 nM.

In the case of `FC(F)(F)c1cnc(N2CCc3[nH]cnc3[C@@H]2c2cn3ccccc3n2)nc1` [Example 232, (S)-4-(imidazo[1,2-a]pyridin-2-yl)-5-(5-(trifluoromethyl)pyrimidin-2-yl)-4,5,6,7-tetrahydro-1H-imidazo[4,5-c]pyridine], the AC50 is over 5000 nM. As to `O=C(c1ocnc1C(F)(F)F)N1CCc2[nH]cnc2[C@@H]1c1cn2ccccc2n1` [Example 233, (S)-(4-(imidazo[1,2-a]pyridin-2-yl)-6,7-dihydro-1H-imidazo[4,5-c]pyridin-5(4H)-yl)(4-(trifluoromethyl)oxazol-5-yl)methanone], the AC50 was over 5000 nM.

In the case of `O=C(c1ocnc1C(F)(F)F)N1CCc2[nH]cnc2[C@H]1c1cn2ccccc2n1` [Example 234, (R)-(4-(imidazo[1,2-a]pyridin-2-yl)-6,7-dihydro-1H-imidazo[4,5-c]pyridin-5(4H)-yl)(4-(trifluoromethyl)oxazol-5-yl)methanone], the AC50 was under 500 nM. In the case of `O=C(CC1CC1)N1CCc2[nH]cnc2[C@@H]1c1cn2ccccc2n1` [Example 237, (S)-2-cyclopropyl-1-(4-(imidazo[1,2-a]pyridin-2-yl)-6,7-dihydro-1H-imidazo[4,5-c]pyridin-5(4H)-yl)ethanone], the AC50 is over 5000 nM. In the case of `O=C(CC1CC1)N1CCc2[nH]cnc2[C@H]1c1cn2ccccc2n1` [Example 238, (R)-2-cyclopropyl-1-(4-(imidazo[1,2-a]pyridin-2-yl)-6,7-dihydro-1H-imidazo[4,5-c]pyridin-5(4H)-yl)ethanone] it was under 500 nM; in that of `O=C(c1oc(C2CC2)nc1C(F)(F)F)N1CCc2[nH]cnc2[C@H]1c1cn2ccccc2n1` [Example 240, (R)-(2-cyclopropyl-4-(trifluoromethyl)oxazol-5-yl)(4-(imidazo[1,2-a]pyridin-2-yl)-6,7-dihydro-1H-imidazo[4,5-c]pyridin-5(4H)-yl)methanone], under 500 nM.

On to `O=C(CCC1CC1)N1CCc2[nH]cnc2[C@@H]1c1cn2ccccc2n1` [Example 241, (S)-3-cyclopropyl-1-(4-(imidazo[1,2-a]pyridin-2-yl)-6,7-dihydro-1H-imidazo[4,5-c]pyridin-5(4H)-yl)propan-1-one], for which the AC50 was over 5000 nM. As for `O=C(CCC1CC1)N1CCc2[nH]cnc2[C@H]1c1cn2ccccc2n1` [Example 242, (R)-3-cyclopropyl-1-(4-(imidazo[1,2-a]pyridin-2-yl)-6,7-dihydro-1H-imidazo[4,5-c]pyridin-5(4H)-yl)propan-1-one], the half-maximal activity concentration (AC50) is under 500 nM. Regarding `O=C(c1ocnc1C1CC1)N1CCc2[nH]cnc2[C@@H]1c1cn2ccccc2n1` [Example 243, (S)-(4-cyclopropyloxazol-5-yl)(4-(imidazo[1,2-a]pyridin-2-yl)-6,7-dihydro-1H-imidazo[4,5-c]pyridin-5(4H)-yl)methanone], the AC50 was 1000 to 5000 nM.

For the compound `O=C(c1ocnc1C1CC1)N1CCc2[nH]cnc2[C@H]1c1cn2ccccc2n1` [Example 244, (R)-(4-cyclopropyloxazol-5-yl)(4-(imidazo[1,2-a]pyridin-2-yl)-6,7-dihydro-1H-imidazo[4,5-c]pyridin-5(4H)-yl)methanone], the AC50 lay in the range of 500 to 1000 nM. On to `CC(C)(C)c1ncc(C(=O)N2CCc3[nH]cnc3[C@H]2c2cn3ccccc3n2)s1` [Example 245, (R)-(2-(tert-butyl)thiazol-5-yl)(4-(imidazo[1,2-a]pyridin-2-yl)-6,7-dihydro-1H-imidazo[4,5-c]pyridin-5(4H)-yl)methanone], for which the half-maximal activity concentration (AC50) lay in the range of 500 to 1000 nM. Regarding `CC(C)(C)c1ncc(C(=O)N2CCc3[nH]cnc3[C@@H]2c2cn3ccccc3n2)s1` [Example 246, (S)-(2-(tert-butyl)thiazol-5-yl)(4-(imidazo[1,2-a]pyridin-2-yl)-6,7-dihydro-1H-imidazo[4,5-c]pyridin-5(4H)-yl)methanone], the AC50 was over 5000 nM. Regarding `CC(C)(F)c1ncc(C(=O)N2CCc3[nH]cnc3[C@@H]2c2cn3ccccc3n2)s1` [Example 247, (S)-(2-(2-fluoropropan-2-yl)thiazol-5-yl)(4-(imidazo[1,2-a]pyridin-2-yl)-6,7-dihydro-1H-imidazo[4,5-c]pyridin-5(4H)-yl)methanone], the AC50 is over 5000 nM. In the case of `CC(C)(F)c1ncc(C(=O)N2CCc3[nH]cnc3[C@H]2c2cn3ccccc3n2)s1` [Example 248, (R)-(2-(2-fluoropropan-2-yl)thiazol-5-yl)(4-(imidazo[1,2-a]pyridin-2-yl)-6,7-dihydro-1H-imidazo[4,5-c]pyridin-5(4H)-yl)methanone] it was 500 to 1000 nM; in that of `CC(C)(C)c1ncc(C(=O)N2CCc3[nH]cnc3[C@H]2c2cn3ccccc3n2)o1` [Example 250, (R)-(2-(tert-butyl)oxazol-5-yl)(4-(imidazo[1,2-a]pyridin-2-yl)-6,7-dihydro-1H-imidazo[4,5-c]pyridin-5(4H)-yl)methanone], 500 to 1000 nM. In the case of `O=C(c1cnc(C2(F)CCC2)s1)N1CCc2[nH]cnc2[C@H]1c1cn2ccccc2n1` [Example 251, (R)-(2-(1-fluorocyclobutyl)thiazol-5-yl)(4-(imidazo[1,2-a]pyridin-2-yl)-6,7-dihydro-1H-imidazo[4,5-c]pyridin-5(4H)-yl)methanone] it was 1000 to 5000 nM. In the case of `O=C(c1cnc(C2(F)CCC2)s1)N1CCc2[nH]cnc2[C@@H]1c1cn2ccccc2n1` [Example 252, (S)-(2-(1-fluorocyclobutyl)thiazol-5-yl)(4-(imidazo[1,2-a]pyridin-2-yl)-6,7-dihydro-1H-imidazo[4,5-c]pyridin-5(4H)-yl)methanone] it was over 5000 nM. Turning to `O=C(CC1CC(F)C1)N1CCc2[nH]cnc2[C@@H]1c1cn2ccccc2n1` (stereo partly drawn) [Example 253, (S)-2-(3-fluorocyclobutyl)-1-(4-(imidazo[1,2-a]pyridin-2-yl)-6,7-dihydro-1H-imidazo[4,5-c]pyridin-5(4H)-yl)ethanone], the AC50 was 1000 to 5000 nM. As for `O=C(CC1CC(F)C1)N1CCc2[nH]cnc2[C@H]1c1cn2ccccc2n1` (stereo partly drawn) [Example 254, (R)-2-(3-fluorocyclobutyl)-1-(4-(imidazo[1,2-a]pyridin-2-yl)-6,7-dihydro-1H-imidazo[4,5-c]pyridin-5(4H)-yl)ethanone], the AC50 is under 500 nM.

Consider `O=C(c1oc(-c2ccccn2)nc1C(F)(F)F)N1CCc2[nH]cnc2[C@H]1c1cn2ccccc2n1` [Example 256, (R)-(4-(imidazo[1,2-a]pyridin-2-yl)-6,7-dihydro-1H-imidazo[4,5-c]pyridin-5(4H)-yl)(2-(pyridin-2-yl)-4-(trifluoromethyl)oxazol-5-yl)methanone], for which the AC50 is under 500 nM.
